Experimental data: patent publication US6080753A, “Stimulating nerve growth with immunophilins” (Johns Hopkins University School of Medicine, priority 1997, dated 2000)
Entries after “also recorded” stand apart in the source; their conditions may differ.

Experiments:
FKBP [1] = molecular target: T1, FKBP (Rattus norvegicus, UniProt Q62658); test: [3H]FK506 autoradiography on dorsal root ganglia cultures; format: binding; conditions: 1 μM unlabeled FK506, 1 nM [3H]FK506
Description: For [^3 H]FK506 autoradiography, dorsal root ganglia cultures were grown on chamber slides coated with collagen, 5 μg/cm^2. Cultures were fixed on the slide with ice cold 4.0% freshly depolymerized paraformaldehyde in 0.1 M sodium phosphate buffer, pH 7.4, for 1 hr, then washed two times with phosphate buffered saline. Fixed cultures were labeled with [^3 H]FK506 by pre-incubating the slides in a buffer consisting of 50 mM Hepes, 2 mg/ml bovine serum albumin, 0.02% Tween-20 pH 7.4. This was followed by incubation in the same assay buffer containing 1 nM [^3 H]FK506. Non-specific binding was determined by adding 1 μM unlabeled FK506. The slides were then rinsed 4×5 min prior to drying, and juxtaposed to tritium-sensitive film for 10 days.

PC-12 cells = test: Neurite outgrowth in PC-12 cells; format: cell-based
Description: PC-12 cells were maintained at 37° C., 5% CO2, in Dulbecco's modified Eagle medium (DMEM) supplemented with 10% heat-inactivated horse serum and 5% heat-inactivated fetal bovine serum. For differentiation in NGF, cells were plated at 1×10^5 in 35 mm culture wells coated with rat tail collagen at 5 μg/cm^2, and allowed to attach before replacing the media with DBMEM supplemented with 2% fetal horse serum, 1% fetal calf serum, NGF and/or FK506 or rapamycin. For quantitation of neurite outgrowth, random photographs were made (3-4 per well), and process bearing neurons were counted with processes being greater than 5 μm. Experimental conditions were unknown by the photographer and cell counter. Four separate experiments were performed in duplicate for each data point presented. Neurites were identified and counted from approximately 100 cells per photograph. Thus, neurites from 1200-1600 cells were counted per data point.

dorsal root ganglia = test: Neurite/axon outgrowth in dorsal root ganglia explant cultures; format: cell-based, rat; conditions: for time at which growth begins to plateau / time by which some outgrowth is evident: all concentrations
Description: Stage E16 embryos were removed from pregnant Sprague-Dawley rats and the dorsal root ganglia dissected. Whole ganglia explants were cultured in collagencoated 35 mm dishes (Falcon) using N2 medium (Dulbecco's Modified Eagle medium and Ham's F12 medium mixed 1:1 and supplemented with progesterone, selenium, insulin, putrescine, glucose, and penicillin-streptomycin) at 37° C. in a 15% CO2 environment. Sensory ganglia were treated with various concentrations of NGF and/or FK506 or rapamycin or anti-NGF antibody. Ganglia were observed every 2-3 days under phase-contrasting using an Olympus IMT-2 inverted microscope, and measurements of axon length were made. The axonal field of each ganglion was divided into four quadrants, and the length of the longest axons in each quadrant was measured in microns using an eye-piece micrometer. The average of these measurements was taken as the axon length for the ganglion.

FKBP [2] = molecular target: T1, FKBP; test: [3H]FK506 binding to PC-12 cell homogenates; parameters: endogenous in cells; host or cells: PC-12 cells; conditions: for [3H]FK506 binding following NGF treatment: PC-12 cells, NGF 50 ng/ml
Description: Levels of FKBP in PC-12 cells were obtained from Scatchard analysis of [^3 H]FK506 binding curves. Cultures were scraped from the culture wells and homogenized in 10 volumes of 50 mM Tris-HCl, pH 7.4, 1 mM EDTA, 100 μg/ml phenylmethylsulfonylfluoride and centrifuged at 40,000×g for 20 min at 4° C. Protein was determined by the Coomassie blue dye binding assay using bovine serum albumin as a standard. Binding of 250 pM [^3 H]dihydro FK506 (86.5 Ci/mmol, DuPont/NEN) was assessed for samples containing 5 μg soluble protein in a final volume of 0.4 ml assay buffer containing 50 mM Tris-HCl, pH 7.4, 2 mg/ml BSA and varying concentrations of unlabeled FK506. After 60 min incubation at 25° C., 0.35 ml was layered over a 0.8 ml column of LH-20 Sephadex (Pharmacia LKB), pre-equilibrated with assay buffer. The column was further washed with 0.4 ml of assay buffer, the eluates collected, mixed with Formula 963 (DuPont/NEN) and counted in a Beckman scintillation counter. Specific binding was determined by subtracting binding obtained in the presence of 1 μM unlabeled FK506 from total [^3 H]FK506 bound.

FKBP [3] = molecular target: T1, FKBP; test: [3H]FK506 binding in rat tissues (Table 1A); parameters: from tissue; host or cells: rat sciatic nerve, cerebral cortex, thymus, spleen; neonatal rat forebrain and growth cones
Source text: If FKBP were physiologically associated with neuronal process extension in the actions of GAP-43, then one might anticipate substantial levels of FKBP in peripheral nerve. Accordingly, we measured [^3 H]FK-506 binding in rat sciatic nerve, as well as in growth cones isolated from 2-day-old rat pups, and compared values with those of the cerebral cortex and several peripheral tissues.
For axon transport experiments, classic ligature techniques were used following the methods of Tetzlaff et al. One week following sciatic nerve crush two collection ligatures (510 sutures) were placed on the nerve approximately 10 mm apart with the distal most ligature positioned 10 mm proximal to the initial crush sight. Six hours later, 5-3 mm segments of the nerve were collected from regions proximal to, distal to, and between the collection ligatures as illustrated in FIG. 5. The nerve segments were prepared for [^3 H]FK-506 binding assays by homogenizing in 10 volumes of 50 mM Tris-HCl, pH 7.4. Homogenates were centrifuged at 15,000×g for 20 min at 4° C., and supernatants were collected and assayed for total protein concentration using the Coomassie blue dye binding assay (Pearce). [^3 H]FK-506 binding was carried out as described (4) on aliquots containing 2 ug of total soluble protein in a final volume of 0.4 ml assay buffer consisting of 50 mM Tris-HCl, pH 7.4, 2 mg/ml bovine serum albumin, 250 pM [^3 H]FK-506, and varying concentrations of unlabeled FK-506. Following incubation at 25° C. for 60 min, 0.35 ml was layered over a 0.8 ml column of LH-20 Sephadex (Pharmacia LKB) and washed with 0.4 ml of assay buffer. The eluates were collected and counted in a scintillation counter.

T1 sequence (Q62658 whole entry): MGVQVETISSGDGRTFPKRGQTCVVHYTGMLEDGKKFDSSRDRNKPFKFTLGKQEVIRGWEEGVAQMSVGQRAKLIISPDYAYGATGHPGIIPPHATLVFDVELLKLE

Compound: C=CC[C@@H]1/C=C(\C)C[C@H](C)C[C@H](OC)[C@H]2O[C@@](O)(C(=O)C(=O)N3CCCC[C@H]3C(=O)O[C@H](/C(C)=C/[C@@H]3CC[C@@H](O)[C@H](OC)C3)[C@H](C)[C@@H](O)CC1=O)[C@H](C)C[C@@H]2OC [FK506]
- displacement of [3H]FK506 autoradiographic grains (FKBP [1]): autoradiographic grains are abolished
- kind of effect on neuritic processes (PC-12 cells): primarily increases neurite length
- reduction of the NGF concentration needed to elicit maximal outgrowth (PC-12 cells; FK506 100 nM): 20-50 fold
- effect on NGF-stimulated neurite outgrowth (PC-12 cells; FK506 100 nM, 48 hr): markedly augments the effect of NGF
- additional neurite outgrowth at maximal NGF (PC-12 cells; FK506 100 nM, NGF 10-100 ng/ml): fails to produce additional neurite outgrowth
- neurite outgrowth in the absence of NGF (PC-12 cells; no NGF): fails to elicit neurite outgrowth; also recorded: fails to stimulate neurite outgrowth
- EC50 (PC-12 cells; with NGF 1 ng/ml, 48 hr, read-out: half maximal effects on neurite outgrowth): ~0.1 nM
- FK506 concentration eliciting the same maximal outgrowth as 50 ng/ml NGF (PC-12 cells; with submaximal NGF 1 ng/ml, 48 hr): 1 nM
- neurite outgrowth compared with no added growth factor (dorsal root ganglia; FK506 1 pM): greater than in its absence
- neurite/axon outgrowth (dorsal root ganglia; FK506 1 μM alone): produces a similar neurotrophic effect; also recorded: abundant axon outgrowth
- neurite outgrowth (dorsal root ganglia; FK506 0.1 and 10 nM): Progressively greater outgrowth
- concentration required for maximal outgrowth (dorsal root ganglia; FK506 alone): 1 µM
- lowest concentration producing a noticeable increase in growth (dorsal root ganglia; FK506 alone): 1 nM
- lowest concentration producing detectable augmentation of outgrowth (dorsal root ganglia; FK506 alone): 1 pM
- time at which growth begins to plateau (dorsal root ganglia): 5 to 6 days
- time by which some outgrowth is evident (dorsal root ganglia): ≤ 1 days
- IC50 (FKBP [2]; untreated PC-12 cell homogenates, 250 pM radioligand, read-out: Fifty percent inhibition of [3H]FK506 binding): 1 to 2 nM

Compound: [3H]CC([3H])C[C@@H]1/C=C(\C)C[C@H](C)C[C@H](OC)[C@H]2O[C@@](O)(C(=O)C(=O)N3CCCC[C@H]3C(=O)O[C@H](/C(C)=C/[C@@H]3CC[C@@H](O)[C@H](OC)C3)[C@H](C)[C@@H](O)CC1=O)[C@H](C)C[C@@H]2OC (some centres unmarked) [[^3 H]FK506]
- [3H]FK506 binding Bmax (FKBP [3]; adult rat, cerebral cortex): 48.0 pmol/mg protein
- [3H]FK506 binding Bmax (FKBP [3]; adult rat, sciatic nerve): 22.1 pmol/mg protein
- [3H]FK506 binding Bmax (FKBP [3]; adult rat, spleen): 8.0 pmol/mg protein
- [3H]FK506 binding Bmax (FKBP [3]; adult rat, thymus): 9.5 pmol/mg protein
- [3H]FK506 binding Bmax (FKBP [3]; neonatal rat, forebrain): 25.5 pmol/mg protein
- [3H]FK506 binding Bmax (FKBP [3]; neonatal rat, growth cones): 10.2 pmol/mg protein

Compound: CO[C@H]1C[C@@H]2CC[C@@H](C)[C@@](O)(O2)C(=O)C(=O)N2CCCC[C@H]2C(=O)O[C@H]([C@H](C)C[C@@H]2CC[C@@H](O)[C@H](OC)C2)CC(=O)[C@H](C)/C=C(\C)[C@@H](O)[C@@H](OC)C(=O)[C@H](C)C[C@H](C)/C=C/C=C/C=C/1C [rapamycin]
- kind of effect on neuritic processes (PC-12 cells): augments the number of processes as well as their length
- combined effect of FK506 and rapamycin (PC-12 cells; FK506 plus rapamycin): additive
- neurite outgrowth (PC-12 cells; rapamycin 1 nM): major neurite outgrowth
- blockade of the neurotrophic actions of FK506 (PC-12 cells; rapamycin 1 μM): fails to block the neurotrophic actions of FK506
- blockade of FK506 effect on outgrowth (dorsal root ganglia; rapamycin 1 μM with FK506 1 μM): completely blocks the effects of FK506; also recorded: completely inhibits axon outgrowth in the presence of FK506

Compound: nerve growth factor [NGF]
- concentration for maximal augmentation of neurite outgrowth (PC-12 cells; NGF alone): 50 to 100 ng/mL
- NGF concentration for half maximal outgrowth (PC-12 cells; in the absence of FK506): 5 ng/mL
- neurite/axon outgrowth (dorsal root ganglia; NGF 100 ng/ml): markedly increases the number and length of ganglia processes; also recorded: abundant axon outgrowth
- time at which growth begins to plateau (dorsal root ganglia): 5 to 6 days
- time by which some outgrowth is evident (dorsal root ganglia): ≤ 1 days
- [3H]FK506 binding following NGF treatment (FKBP [2]): increases markedly
- [3H]FK506 binding following NGF treatment (FKBP [2]; by 20 hr): triples
